The source of these data is article PMC6199744, “Development of Chemical Proteomics for the Folateome and Analysis of the Kinetoplastid Folateome” (ACS Infectious Diseases, 2018).

Assay type in all cases: binding
For test [1], the target named is T1, HeLa cell extract proteins (Homo sapiens, UniProt P00966).
T1 construct: endogenous in cells; host or cells: HeLa cell extract
T1 sequence (P00966 1-412): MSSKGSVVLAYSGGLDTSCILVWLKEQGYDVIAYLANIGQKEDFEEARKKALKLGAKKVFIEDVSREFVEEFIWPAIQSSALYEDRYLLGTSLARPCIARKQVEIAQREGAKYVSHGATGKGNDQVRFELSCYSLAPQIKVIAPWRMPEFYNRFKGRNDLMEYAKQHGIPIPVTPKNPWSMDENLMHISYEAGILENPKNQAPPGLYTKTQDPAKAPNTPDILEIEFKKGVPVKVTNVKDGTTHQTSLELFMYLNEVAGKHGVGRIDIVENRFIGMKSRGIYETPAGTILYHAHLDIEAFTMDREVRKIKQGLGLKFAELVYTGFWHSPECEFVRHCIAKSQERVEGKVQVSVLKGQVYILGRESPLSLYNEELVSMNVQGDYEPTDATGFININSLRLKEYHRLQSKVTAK

Test [2] has as its target T2, HeLa cell extract proteins (Homo sapiens, UniProt P02786).
T2 construct: endogenous in cells; host or cells: HeLa cell extract

For test [3], the target named is T3, HeLa cell extract proteins (Homo sapiens, UniProt O60884).
T3 construct: endogenous in cells; host or cells: HeLa cell extract
T3 sequence (O60884 whole entry): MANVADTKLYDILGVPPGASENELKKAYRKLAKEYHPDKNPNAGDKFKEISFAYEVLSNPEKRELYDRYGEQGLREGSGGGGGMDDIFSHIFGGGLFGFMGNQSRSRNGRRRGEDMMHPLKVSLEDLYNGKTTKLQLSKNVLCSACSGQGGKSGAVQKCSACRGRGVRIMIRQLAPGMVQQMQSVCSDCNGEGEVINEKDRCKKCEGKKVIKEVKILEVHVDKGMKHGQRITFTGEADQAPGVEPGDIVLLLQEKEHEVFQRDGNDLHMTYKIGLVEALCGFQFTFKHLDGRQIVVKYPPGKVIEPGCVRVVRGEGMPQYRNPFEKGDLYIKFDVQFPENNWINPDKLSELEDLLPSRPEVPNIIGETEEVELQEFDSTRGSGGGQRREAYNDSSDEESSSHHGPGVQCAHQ

Test [4] concerns the target T4, HeLa cell extract proteins (Homo sapiens, UniProt P52789).
T4 construct: endogenous in cells; host or cells: HeLa cell extract
T4 sequence (P52789 1-917): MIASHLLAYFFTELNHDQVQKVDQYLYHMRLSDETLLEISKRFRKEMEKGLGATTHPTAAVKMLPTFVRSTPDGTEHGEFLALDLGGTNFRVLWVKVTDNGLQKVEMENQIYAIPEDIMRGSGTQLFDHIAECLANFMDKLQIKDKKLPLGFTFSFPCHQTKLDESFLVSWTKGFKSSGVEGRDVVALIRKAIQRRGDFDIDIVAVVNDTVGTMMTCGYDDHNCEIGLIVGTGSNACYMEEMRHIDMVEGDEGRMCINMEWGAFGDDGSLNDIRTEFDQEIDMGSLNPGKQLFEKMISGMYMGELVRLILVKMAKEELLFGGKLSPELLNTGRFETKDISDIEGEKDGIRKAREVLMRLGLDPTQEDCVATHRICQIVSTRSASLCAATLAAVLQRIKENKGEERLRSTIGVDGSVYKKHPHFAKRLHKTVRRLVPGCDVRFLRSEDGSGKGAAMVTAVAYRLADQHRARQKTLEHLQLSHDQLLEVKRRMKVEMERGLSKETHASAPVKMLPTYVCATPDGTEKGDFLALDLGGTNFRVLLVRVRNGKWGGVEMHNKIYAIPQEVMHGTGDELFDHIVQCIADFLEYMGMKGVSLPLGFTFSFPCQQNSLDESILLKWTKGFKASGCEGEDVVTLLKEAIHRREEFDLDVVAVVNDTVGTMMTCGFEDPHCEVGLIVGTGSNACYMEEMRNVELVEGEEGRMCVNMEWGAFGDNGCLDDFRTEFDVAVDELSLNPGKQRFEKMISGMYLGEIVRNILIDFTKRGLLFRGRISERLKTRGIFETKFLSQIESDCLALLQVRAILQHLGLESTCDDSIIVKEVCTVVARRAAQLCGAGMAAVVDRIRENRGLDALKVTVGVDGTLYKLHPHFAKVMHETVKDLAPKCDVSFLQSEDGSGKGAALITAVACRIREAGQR

In test [5] the target is T5, HeLa cell extract proteins (Homo sapiens, UniProt P23381).
T5 construct: endogenous in cells; host or cells: HeLa cell extract
T5 sequence (P23381 1-471): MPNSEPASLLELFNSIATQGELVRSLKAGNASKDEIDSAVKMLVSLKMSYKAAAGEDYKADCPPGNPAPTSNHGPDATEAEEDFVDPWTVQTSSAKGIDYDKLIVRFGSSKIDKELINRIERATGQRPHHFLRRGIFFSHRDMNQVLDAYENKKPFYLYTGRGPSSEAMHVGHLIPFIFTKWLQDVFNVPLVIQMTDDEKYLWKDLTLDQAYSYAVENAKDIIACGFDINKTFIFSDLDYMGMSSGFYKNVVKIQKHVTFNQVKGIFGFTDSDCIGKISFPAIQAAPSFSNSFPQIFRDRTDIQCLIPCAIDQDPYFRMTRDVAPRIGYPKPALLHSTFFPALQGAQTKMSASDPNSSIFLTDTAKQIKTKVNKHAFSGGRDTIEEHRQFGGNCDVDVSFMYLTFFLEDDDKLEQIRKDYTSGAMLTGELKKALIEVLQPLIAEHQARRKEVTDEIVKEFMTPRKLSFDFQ

The target of test [6] is T6, HeLa cell extract proteins (Homo sapiens, UniProt Q96QK1).
T6 construct: endogenous in cells; host or cells: HeLa cell extract

In test [7] the target is T7, HeLa cell extract proteins (Homo sapiens, UniProt Q08380).
T7 construct: endogenous in cells; host or cells: HeLa cell extract
T7 sequence (Q08380 19-585): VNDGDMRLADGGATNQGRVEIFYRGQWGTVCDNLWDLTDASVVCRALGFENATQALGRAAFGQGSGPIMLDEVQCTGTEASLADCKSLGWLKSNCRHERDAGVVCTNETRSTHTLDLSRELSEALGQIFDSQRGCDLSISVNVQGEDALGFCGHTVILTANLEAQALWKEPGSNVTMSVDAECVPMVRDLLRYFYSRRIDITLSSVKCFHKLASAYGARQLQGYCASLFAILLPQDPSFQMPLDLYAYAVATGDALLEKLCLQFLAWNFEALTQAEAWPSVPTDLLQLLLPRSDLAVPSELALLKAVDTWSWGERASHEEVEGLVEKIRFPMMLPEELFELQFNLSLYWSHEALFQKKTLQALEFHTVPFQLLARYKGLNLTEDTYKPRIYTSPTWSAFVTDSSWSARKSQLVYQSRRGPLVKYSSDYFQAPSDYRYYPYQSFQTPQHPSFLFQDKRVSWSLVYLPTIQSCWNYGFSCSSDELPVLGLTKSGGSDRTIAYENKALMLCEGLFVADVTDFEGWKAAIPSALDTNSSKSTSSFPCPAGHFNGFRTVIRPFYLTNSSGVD

[8] abbreviates: HeLa, protein ASS1 (ARGININOSUCCINATE SYNTHASE.).
The mark [9] stands for this setting: HeLa, protein LGALS3BP (GALECTIN-3-BINDING PROTEIN PRECURSOR).

Read-outs that look alike come from different tables or passages of the source.

T2 sequence (P02786 whole entry): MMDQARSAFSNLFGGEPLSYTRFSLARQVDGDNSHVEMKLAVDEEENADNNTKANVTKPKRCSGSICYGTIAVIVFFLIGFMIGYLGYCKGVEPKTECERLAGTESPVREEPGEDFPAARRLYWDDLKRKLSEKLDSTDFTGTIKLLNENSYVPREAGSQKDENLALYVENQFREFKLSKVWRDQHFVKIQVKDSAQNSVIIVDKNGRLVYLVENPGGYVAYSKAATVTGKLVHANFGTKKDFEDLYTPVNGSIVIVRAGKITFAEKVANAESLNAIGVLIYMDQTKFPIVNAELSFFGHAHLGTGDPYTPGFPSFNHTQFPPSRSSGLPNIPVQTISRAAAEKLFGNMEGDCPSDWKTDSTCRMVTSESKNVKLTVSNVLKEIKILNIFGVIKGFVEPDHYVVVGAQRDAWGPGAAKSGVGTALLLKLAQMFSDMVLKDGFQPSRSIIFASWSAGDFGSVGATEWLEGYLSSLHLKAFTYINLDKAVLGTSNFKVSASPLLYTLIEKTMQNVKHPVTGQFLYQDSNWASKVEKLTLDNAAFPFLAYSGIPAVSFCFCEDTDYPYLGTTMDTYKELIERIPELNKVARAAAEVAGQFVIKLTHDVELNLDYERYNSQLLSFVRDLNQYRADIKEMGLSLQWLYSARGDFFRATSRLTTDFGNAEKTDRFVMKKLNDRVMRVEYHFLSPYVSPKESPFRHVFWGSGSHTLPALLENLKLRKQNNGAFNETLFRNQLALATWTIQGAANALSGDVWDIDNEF

For `CCCCCCOc1cccc(Cc2cnc(N)nc2N)c1` [compound 2], the “fold changes relative to vehicle control” value is given as 2.2 fold in test [1] (setting [8]); 1.96 in test [2] (protein TFRC, HeLa); 1.14 in test [3] (protein DNAJA2, HeLa); 1.43 in test [4] (protein HK2, HeLa); 1.71 in test [5] (protein WARS, HeLa); 1.7 in test [6] (protein VPS35, HeLa). In test [7] (protein LGALS3BP, HeLa), the “fold changes relative to vehicle control” value is given as 0.95.
Take `NCCOCCOCC(=O)Nc1nc2ncc(CNc3ccc(C(=O)NC(CCC(=O)O)C(=O)O)cc3)nc2c(=O)[nH]1` (stereo not shown) [compound 6]: the “fold changes relative to vehicle control” value in test [1] (HeLa, protein ASS1) is listed as 1.43; in test [2] (HeLa, protein TFRC) it was 1.09; in test [3] (protein DNAJA2, HeLa), 1.01; in test [4] (HeLa, protein HK2), 1.21; in test [5] (protein WARS, HeLa), 1.19; in test [6] (HeLa, protein VPS35), 1.15. Further, the “fold changes relative to vehicle control” value in test [7] (setting [9]) is listed as 1.02.
As for `CCCCCCOc1ccc(Cc2cnc(N)nc2N)cc1` [compound 1], the “fold changes relative to vehicle control” value in test [1] (setting [8]) turned out to be 1.53 fold; in test [2] (protein TFRC, HeLa), 1.26; in test [3] (protein DNAJA2, HeLa) it was 0.92; in test [4] (protein HK2, HeLa), 1.11; in test [5] (protein WARS, HeLa), 0.96; in test [6] (protein VPS35, HeLa), 1.13. In addition, the “fold changes relative to vehicle control” value in test [7] (protein LGALS3BP, HeLa) worked out at 0.97.
`Nc1nc2c(c(=O)[nH]1)N(C=O)C(CNc1ccc(C(=O)N[C@@H](CCC(=O)O)C(=O)O)cc1)CN2` (stereo partly shown) [LEU, leucovorin]: the “fold changes relative to vehicle control” value in test [1] (HeLa, protein ASS1) was found to be 1.03; in test [2] (HeLa, protein TFRC) it was 0.94; in test [3] (protein DNAJA2, HeLa) it was 0.86; in test [4] (HeLa, protein HK2), 1; in test [5] (protein WARS, HeLa) it was 0.95; in test [6] (HeLa, protein VPS35), 0.91. For the same molecule, the “fold changes relative to vehicle control” value in test [7] (setting [9]) is listed as 1.08.
Turning to `NCCCNc1ccc(C(=O)NC(CCC(=O)O)C(=O)O)cc1` (stereo not shown) [compound 7], the “fold changes relative to vehicle control” value turned out to be 1.01 in test [1] (HeLa, protein ASS1); 0.87 in test [2] (HeLa, protein TFRC); 0.91 in test [3] (protein DNAJA2, HeLa); 1.03 in test [4] (HeLa, protein HK2); 0.98 in test [5] (protein WARS, HeLa); 1.1 in test [6] (HeLa, protein VPS35). In addition, in test [7] (setting [9]), the “fold changes relative to vehicle control” value turned out to be 1.09.
As to `Nc1nc2[nH]cc(CCc3ccc(C(=O)N[C@@H](CCC(=O)O)C(=O)O)cc3)c2c(=O)[nH]1` [PTX, pemetrexed], the “fold changes relative to vehicle control” value in test [1] is listed as 1.23; in test [2] it was 1.01; in test [3] it was 0.9; in test [4], 1.02; in test [5], 1.02; in test [6] it was 1.05. The “fold changes relative to vehicle control” value in test [7] worked out at 1.13.
Consider `Nc1nc2cccc(-c3ccccc3)c2n1Cc1ccc(Cl)c(Cl)c1` [compound 3], for which the “fold changes relative to vehicle control” value was 0.97 fold in test [1] (HeLa, protein ASS1 (ARGININ[…].)); 0.99 in test [2] (protein TFRC, HeLa); 0.95 in test [3] (protein DNAJA2, HeLa); 0.9 in test [4] (protein HK2, HeLa); 0.9 in test [5] (protein WARS, HeLa); 0.96 in test [6] (protein VPS35, HeLa). For the same molecule, the “fold changes relative to vehicle control” value in test [7] (protein LGALS3BP, HeLa) was determined as 1.07.
